{"source": "patent US20070191324A1", "about": "“Methods for treatment or prophylaxis of aldosterone-mediated pathogenic effects in a subject using an epoxy-steroidal aldosterone antagonist” (priority 1999, published 2007)", "key": {"[1]": {"tested_on": "L-NAME/Angiotensin II/NaCl-treated rats", "test": "L-NAME/Angiotensin II/NaCl model of cardiac and renal injury (Example A-1)", "assay_type": "in vivo, Male Wistar rats", "description": "Animals. Male Wistar rats (n=44), weighing 200 to 225 grams, and obtained from Charles River Laboratories (Wilmington, Mass.) were used in the study. All animals were housed in a room lighted 12 hours per day at an ambient temperature of 22±1° C. Animals were allowed one week to recover after arrival and had free access to Purina Lab Chow 5001 (Ralston Purina Inc, St. Louis, Mo.) and tap water until the initiation of the experiment. After initiation of the protocols, animals in all groups were placed in individual metabolic cages, handled and weighed daily. Twenty-four hour fluid intake, food intake and urine output were measured daily. […] On day 14 of L-NAME treatment, animals were decapitated, trunk blood was collected into chilled tubes containing ethylene diamine tetraacetic acid and the heart and kidneys were removed, blotted dry and immediately weighed. […] Drugs. Eplerenone was supplied by G.D. Searle Pharmaceuticals (St. […] Dexamethasone was dissolved in sesame oil and administered as a single subcutaneous dose (12 μg/kg/day) every day. This dose of dexamethasone has been reported to, maintain normal weight gain, glomerular filtration rate, and fasting plasma glucose and insulin levels in adrenalectomized rats. Stanton, B., Giebisch G et al. J. Clin. Invest 1985 75:1317-1326. The experiment was concluded on day 14 of L-NAME treatment. […] (Hou J et al. J. Clin. Invest 1995 96:2469-2477. […] This lower dose induced lesions in stroke-prone spontaneously hypertensive rats. (Rocha R et al. […] Dexamethasone, aldosterone and L-NAME were purchased from Sigma Chemical Co. (St. Louis, Mo.). […] Surgical Procedure. […] Bilateral adrenalectomy was performed using a dorsolumbar approach, making separate incisions on each side. […] No post operative deaths occurred. Assays and Analyses. Systolic blood pressure was measured in awake animals by tail-cuff plethysmography using a Natsume KN-210 manometer and tachometer (Peninsula Laboratories Inc, Belmont, Calif.). Rats were warmed at 37° C. for 10 minutes and allowed to rest quietly in a Lucite chamber before measurement of blood pressure. Urinary protein concentration was determined in urine collected on the last day of the experiment using the sulfosalicylic acid turbidity method. […] Plasma aldosterone concentration was determined using a standard radioimmunoassay-kit from Diagnostic Products Co. (Los Angeles, Calif.). Plasma renin activity (“PRA”) was determined by radioimmunoassay detection of generated angiotensin I (DiaSorin Inc., Stillwater, Minn.). Histology. Hearts were stained with collagen specific dye Sirius red for determination of fibrosis as reported elsewhere. (Young M et al. Am. J. Physiol 1995 269:[…]-[…]). Interstitial collagen was determined using an automated image analyzer. The hearts were also stained with hematoxylin and eosin for light microscopic analysis. Two or three slices of different sections of the heart containing both right and left ventricle were analyzed from each animal. […] Glomerular damage, when present, was characterized as the presence of either segmental or global sclerosis with ischemic or thrombotic changes. Renal arterial and arteriolar damage was categorized as the presence of fibrinoid necrosis of the vascular wall. The renal arterial and arteriolar profiles presenting damage were counted and the number of injured vessels per section was divided by the number of glomeruli in the same section in order to normalize for the amount of tissue examined. […] Statistical analysis. Data were tested for normality using the Kolmogorov-Smirnov test. Systolic blood pressure was analyzed using repeated measures-analysis of variance for time and treatment group. One-way analysis of variance was used for normally distributed data with one grouping variable. Post-hoc analysis was performed using Newman Keuls multiple-comparison test. Data that were not normally distributed were analyzed with the Kruskal-Wallis test. […]"}, "saline-drinking SHRSP": {"tested_on": "saline-drinking SHRSP", "test": "Renal pathologic changes in saline-drinking SHRSP, Protocol 1 (Example A-8)", "assay_type": "in vivo, rat (SHRSP/A3N)", "description": "Animals. Studies were conducted in accordance with institutional guidelines using male […] (generations […]-78), n=37, from our local colony. These animals were bred from NIH stock, derived from the […] substrain described originally by Okamoto and coworkers (Okamoto K et al. Circ. […] All animals were housed in a room maintained on a 12:12-h light:dark-cycle and an ambient temperature of 22±1° C. in the Animal Care Facility at New York Medical College. Rats were weaned at 4 weeks of age and allowed free access to Purina Lab Chow 5001 (Ralston Purina, St. Louis, Mo.) and tap water until the initiation of experimental protocols. […] Animals were examined each day for neurologic signs of stroke. Systolic arterial pressure and heart rate were measured each week in awake rats. […] Trunk blood was collected into chilled EDTA tubes following rapid decapitation of the animals between 10:00 am and 12:00 pm. Blood was stored at -20° C. for later measurement of plasma aldosterone levels. The kidneys were rapidly removed, weighed, and then preserved in fixative for later histologic examination. Assays and Analyses. Systolic blood pressure and heart rate of awake animals were measured by tail-cuff plethysmography using a Natsume KN-210 manometer and tachometer (Peninsula Laboratories Inc., Belmont, Calif.). Rats were warmed at 37° C. for 10 min and allowed to rest quietly in a Lucite chamber before measurement of blood pressure. Measurements of urine volume were made gravimetrically. Urinary protein concentration was determined by the sulfosalicylic acid turbidity method. Plasma aldosterone was measured by radioimmunoassay using ^125I-aldosterone as a tracer (Coat-a Count Aldosterone, Diagnostic Products Co., Los Angeles, Calif.). Histology. […] Coronal sections (2-3 μm) were stained with hematoxylin and eosin and examined by light microscopy in a blinded fashion as previously described ([…] et al. […] Glomerular damage was categorized as ischemic or thrombotic. Ischemic lesions were defined as retraction of glomerular capillary tufts with or without appreciable mesangiolysis. […] The presence of casts and tubular (ischemic) retraction and simplification was assessed semiquantitatively. […] Significant effects with respect to treatment and time were determined by two-way analysis of variance. Data with only one grouping variable were analyzed statistically by Student's unpaired t tests. […] Data were analyzed using version 2.01 of the GraphPad Prism statistical software package (GraphPad Software Inc., San Diego, Calif.). […]"}}}
{"smiles": "COC(=O)[C@@H]1CC2=CC(=O)CC[C@]2(C)[C@@]23O[C@@H]2C[C@@]2(C)[C@@H](CC[C@@]24CCC(=O)O4)[C@H]13", "note": "[Eplerenone, Pregn-4-ene-7,21-dicarboxylic acid, 9,11-epoxy-17-hydroxy-3-oxo-, γ-lactone, methyl ester, (7α, 11α, 17β)-]", "values": [{"measurement": "HW/BW (cardiac hypertrophy index)", "setting": "[1]; end of experiment (day 14), Epl 100 mg/kg/day p.o., ALDO 40 μg/kg/day in adrenalectomized rats", "value": "significantly reduced cardiac hypertrophy"}, {"measurement": "SBP", "setting": "[1]; end of experiment, Epl 100 mg/kg/day p.o., ALDO 40 μg/kg/day in adrenalectomized rats", "value": "not appreciably influenced"}, {"measurement": "urinary protein excretion (24 hour)", "setting": "[1]; end of two-week treatment, eplerenone 100 mg/kg/day p.o.", "value": "prevented the development of proteinuria"}, {"measurement": "cardiac injury / myocardial necrosis (histopathology)", "setting": "[1]; eplerenone 100 mg/kg/day p.o., vs L-NAME/Angiotensin II/NaCl", "value": "markedly reduced"}, {"measurement": "Glomerular damage, Total", "setting": "saline-drinking SHRSP; 100 mg/kg/d by gavage, 8.4 to 13.1 weeks of age", "value": "only rare instances of ischemic or thrombotic glomeruli"}, {"measurement": "plasma concentration of aldosterone", "setting": "saline-drinking SHRSP; 100 mg/kg/d, 5 weeks", "value": "315 ± 35", "unit": "pg/mL"}, {"measurement": "signs of stroke", "setting": "saline-drinking SHRSP; 100 mg/kg/d, 5 weeks", "value": "none of eplerenone-treated SHRSP showed evidence of stroke"}, {"measurement": "tubules with ischemic retraction and simplification", "setting": "saline-drinking SHRSP; 100 mg/kg/d, 5 weeks", "value": "0.5±0.2", "unit": "%"}]}
